Values after ≈ are worked out from the molar mass of the structure shown.
How the values were obtained:
A2780 (ovarian cancer) = experiment: MTT anti-proliferative assay, A2780; assay type: cell-based; details: Homo sapiens, A2780 cells, 24 h continuous exposure
Method: (§1) The cell number is estimated colorimetrically based on the transformation of the yellow MTT reagent (3-(4,5-Dimethylthiazol-2-yl)-2,5-diphenyltetrazolium bromide) to a purple formazan dye by mitochondrial enzymes.
(§2) Human cell lines derived from ovarian cancer (A2780, ECACC 93112519), lung cancer (A549, ATCC CCL-185), breast cancer (MCF7, ATCC HTB-22), pancreatic cancer (MiaPaCa2, ATCC CRL-1420) and brain cancer (U87MG, ATCC HTB-14), were obtained from the European Collection of Cell Cultures (ECACC, Salisbury, UK). The A2780, A549, MCF7 and MiaPaCa2 cells were grown in Dulbecco's Modified Eagle Medium (DMEM) supplemented with 10% fetal bovine serum (Biosera, UK), 1% L-glutamine and 1% non-essential aminoacids (Gibco, Invitrogen, USA). U87MG cells were grown in Minimal essential medium supplemented with 10% fetal bovine serum (Biosera, UK), 1% L-glutamine, 1% non-essential aminoacids and 1% Sodium piruvate (Gibco, Invitrogen, USA). Cells were grown in a 5% CO2, 95% humidity incubator. […] The compounds were dissolved in methanol at a maximum concentration of 20 mM, and serial decimal dilutions were prepared in methanol. For each compound and each concentration, 5 μl of the methanol solution were added over the cells, growing in 100 μl of cell culture medium per well (n=6). After 24 h of continuous drug exposure, the growth inhibition was determined using the MTT assay (Lancaster Synthesis Ltd, UK). The amount of dye was quantified spectrophotometrically as absorbance at λ=570 nm (ELx808, Bio-Tek Instruments, Inc.). The IC50 values were calculated by a dose-response analysis using the Origin 6.0® software.

A549 (lung cancer) = experiment: MTT anti-proliferative assay, A549; assay type: cell-based; details: Homo sapiens, A549 cells, 24 h continuous exposure
Method: as §1, §2

MCF7 (breast cancer) = experiment: MTT anti-proliferative assay, MCF7; assay type: cell-based; details: Homo sapiens, MCF7 cells, 24 h continuous exposure
Method: as §1, §2

U87MG (brain cancer) = experiment: MTT anti-proliferative assay, U87MG; assay type: cell-based; details: Homo sapiens, U-87 MG, U87MG cells, 24 h continuous exposure
Method: as §1, §2

[1] = test system: MiaPaCa2 (pancreatic cancer); experiment: MTT anti-proliferative assay, MiaPaCa2; assay type: cell-based; details: Homo sapiens, MIA PaCa-2, MiaPaCa2 cells, 24 h continuous exposure
Method: as §1, §2

DNA Gyrase = target: T1, DNA Gyrase (Escherichia coli, UniProt P0AES6); experiment: DNA gyrase supercoiling assay (relaxed pBR322, agarose gel); assay type: biochemical; details: DNA Gyrase 1U, relaxed pBR322, 37 C, 1 hr
T1 construct: purchased
Method: DNA Gyrase (1U) is incubated with relaxed pBR322 (0.5 μg) in a reaction volume of 30 μL at 37 °C for 1 hr in TRIS-HCl (35 mM, pH 7.5), KCl (24 Mm), MgCl2 (4 mM), DTT (2 mM), spermidine (1.8 mM), ATP (1 mM), glycerol (6.5%, w/v), albumin (0.1 mg/mL).
After incubation the mixture was deproteinized with equal volumes of chloroformisoamyl alcohol (24:1) and the end point was determined by separating relaxed and supertwisted plasmid pBR322DNA by agarose gel electrophoresis (0.8% agarose with TBE buffer), running without Ethidium Bromide. After the run the gel is soaked, in tank buffer containing Ethidium Bromide, for 1 and half hours.

Escherichia coli = experiment: MIC by micro-broth dilution against Escherichia coli, with or without PEI; assay type: cell-based
Method: Microtitre plates were incubated aerobically at 37° C. and read after one and four days. The concentration range tested was 128 to 0.5 μg/ml. A cell permeabilising agent, polyethylenimine (PEI) was used to assess the influence of cell membrane (and associated structures) as a barrier to novobiocin entry into the cell. Isopropyl β-D-1-thiogalactopyranoside (100 μM) was used to induce β-glycosidase and β-galactosidase expression from plasmids pSsβG and pBCSK, respectively. These enzymes can release the native drugs from the conjugates.

[2] = Toxicity relative to precursor (no method given); details: versus novobiocin

SMILES	IC50 (A2780 (ovarian cancer)) [µM]	IC50 (A549 (lung cancer)) [µM]	IC50 (MCF7 (breast cancer)) [µM]	IC50 (U87MG (brain cancer)) [µM]	IC50 [1] [µM]	MIC in DNA gyrase assay (DNA Gyrase) [µM]	re-growth on prolonged incubation at concentrations above the MIC (Escherichia coli; prolonged incubation up to 4 days)	toxicity compared with precursor [2]	increased activity against Escherichia coli in the presence of PEI (Escherichia coli; with polyethylenimine (PEI), independent of β-galactosidase)
CO[C@@H]1C(OC(N)=O)C(O)[C@H](Oc2ccc3c(O[C@@H]4O[C@H](CO)[C@H](O)[C@H](O)[C@H]4O)c(NC(=O)c4ccc(O)c(CC=C(C)C)c4)c(=O)oc3c2C)OC1(C)C (some centres unmarked) [Galactosyl_Novobiocin]	100	100	40	30	30	3 (≈ 2.32 µg/mL)	did not lead to re-growth		
CO[C@@H]1C(OC(N)=O)C(O)[C@H](Oc2ccc3c(O[C@@H]4OC(CO)[C@@H](O)C(O)C4O)c(NC(=O)c4ccc(O)c(CC=C(C)C)c4)c(=O)oc3c2C)OC1(C)C (stereo partly drawn) [Glucosyl_Novobiocin, β-4′-O-glucosyl Novobiocin]	130	60	10	20	10	3 (≈ 2.32 µg/mL)		less toxic than its precursor	
CO[C@@H]1[C@@H](OC(N)=O)[C@@H](O)[C@H](Oc2ccc3c(O)c(NC(=O)c4ccc(O)c(CC=C(C)C)c4)c(=O)oc3c2C)OC1(C)C [Novobiocin, reference compound]	190	> 1000	> 1000	580	320				16-32 fold

Source: patent US9045517B2, “Glycosylated aminocoumarins and methods of preparing and uses of same” (University College London, priority 2010, dated 2015)
